What all share (type): biochemical
One test has as its target T1, Human PI3K alpha (Homo sapiens, UniProt P42336).
T1 construct: His (N); host or cells: SF9 insect cells (baculovirus)
Briefly: Human PI3K alpha enzyme assay (HTRF). (In general: TR-FRET usually uses a lanthanide donor and a delayed reading to cut background.)

The next test has as its target T2, Human PI3K beta (Homo sapiens, UniProt P42338).
T2 construct: His (N); host or cells: SF9 insect cells (baculovirus)
Briefly: Human PI3K beta enzyme assay (HTRF). The gist of the method:
(§1)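 Compounds were mixed with 25 uM ATP, then with 3.5 uM di-C8 PI(4,5)P2 and His-tagged PI3K isoform (β 5.25 nM, δ 0.75 nM, γ 5 nM) at pH 7.00. After 30 min at room temperature, EDTA stopped the reaction and PIP3 was measured by HTRF over 1 h.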

In the next test the target is T3, Human PI3K delta (Homo sapiens, UniProt O00329).
T3 construct: His (N); host or cells: SF9 insect cells (baculovirus)
T3 sequence (O00329 whole entry): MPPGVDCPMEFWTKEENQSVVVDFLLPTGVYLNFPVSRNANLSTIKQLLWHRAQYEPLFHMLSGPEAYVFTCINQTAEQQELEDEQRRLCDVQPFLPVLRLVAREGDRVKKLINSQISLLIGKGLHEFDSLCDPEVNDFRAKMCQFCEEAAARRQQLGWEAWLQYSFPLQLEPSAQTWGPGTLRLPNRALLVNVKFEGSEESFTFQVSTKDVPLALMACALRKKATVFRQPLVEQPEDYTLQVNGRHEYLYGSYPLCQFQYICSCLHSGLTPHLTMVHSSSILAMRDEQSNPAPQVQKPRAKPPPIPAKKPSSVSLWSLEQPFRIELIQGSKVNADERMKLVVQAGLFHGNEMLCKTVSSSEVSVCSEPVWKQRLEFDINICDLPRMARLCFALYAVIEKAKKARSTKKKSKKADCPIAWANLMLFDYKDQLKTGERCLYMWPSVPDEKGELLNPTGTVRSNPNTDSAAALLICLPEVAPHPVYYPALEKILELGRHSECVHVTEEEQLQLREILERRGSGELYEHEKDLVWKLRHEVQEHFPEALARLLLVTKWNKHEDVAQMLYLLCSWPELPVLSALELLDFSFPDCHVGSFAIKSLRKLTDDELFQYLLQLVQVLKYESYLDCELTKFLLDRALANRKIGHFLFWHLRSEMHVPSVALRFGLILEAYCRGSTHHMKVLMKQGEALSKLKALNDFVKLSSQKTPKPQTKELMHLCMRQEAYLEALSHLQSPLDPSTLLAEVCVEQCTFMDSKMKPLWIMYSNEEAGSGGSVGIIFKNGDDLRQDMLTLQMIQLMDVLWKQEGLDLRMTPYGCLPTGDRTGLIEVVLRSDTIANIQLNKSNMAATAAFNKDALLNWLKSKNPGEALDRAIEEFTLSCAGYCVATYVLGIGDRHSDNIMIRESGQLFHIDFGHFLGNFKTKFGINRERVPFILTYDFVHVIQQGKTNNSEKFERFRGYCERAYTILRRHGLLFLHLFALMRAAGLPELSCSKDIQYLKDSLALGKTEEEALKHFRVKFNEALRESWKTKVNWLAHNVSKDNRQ
T3 sequence (P27986 whole entry partner): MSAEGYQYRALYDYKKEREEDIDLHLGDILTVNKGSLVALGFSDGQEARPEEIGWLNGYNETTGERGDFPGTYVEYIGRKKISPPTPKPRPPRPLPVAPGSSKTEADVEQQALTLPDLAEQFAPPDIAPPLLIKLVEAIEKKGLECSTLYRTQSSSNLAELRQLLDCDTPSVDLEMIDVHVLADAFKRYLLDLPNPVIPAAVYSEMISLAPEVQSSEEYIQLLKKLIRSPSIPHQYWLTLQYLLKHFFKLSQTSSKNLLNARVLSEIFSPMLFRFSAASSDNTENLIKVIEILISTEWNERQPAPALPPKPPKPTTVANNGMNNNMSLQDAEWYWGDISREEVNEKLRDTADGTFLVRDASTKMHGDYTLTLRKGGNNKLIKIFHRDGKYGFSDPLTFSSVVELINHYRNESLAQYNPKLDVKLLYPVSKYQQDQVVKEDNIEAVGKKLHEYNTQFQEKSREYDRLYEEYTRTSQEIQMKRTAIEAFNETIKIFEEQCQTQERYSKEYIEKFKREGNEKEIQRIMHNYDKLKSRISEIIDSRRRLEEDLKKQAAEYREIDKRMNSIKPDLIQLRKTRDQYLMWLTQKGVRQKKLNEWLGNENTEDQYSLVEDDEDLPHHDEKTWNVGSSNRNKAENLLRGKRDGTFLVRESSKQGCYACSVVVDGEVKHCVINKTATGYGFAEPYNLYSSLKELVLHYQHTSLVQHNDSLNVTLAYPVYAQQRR
The experiment in a line: Human PI3K delta enzyme assay (HTRF). The gist of the method:
as §1

A further test concerns the target T4, Human PI3K gamma (Homo sapiens, UniProt P48736).
T4 construct: His (N); host or cells: SF9 insect cells (baculovirus)
Briefly: Human PI3K gamma enzyme assay (HTRF). The gist of the method: as §1

[1] abbreviates: concentration not given, b1387 states 1.1 μM for PI3K α and β, read-out: p110 alpha Percent Inhibition.
Setting [2] is: concentration not given, b1387 states 1.1 μM for PI3K α and β, read-out: p110 beta Percent Inhibition.
[3] abbreviates: concentration not given, b1389 states 1.0 μM for PI3K δ and γ, read-out: p110 delta Percent Inhibition.
Setting [4] is: concentration not given, b1389 states 1.0 μM for PI3K δ and γ, read-out: p110 gamma Percent Inhibition.
[5] abbreviates: concentration not given, b1387 states 1.1 μM for PI3K α and β.
Setting [6] is: concentration not given, b1389 states 1.0 μM for PI3K δ and γ.

Structures are written as SMILES. Read-outs that look alike come from different tables or passages of the source.

T2 sequence (P42338 whole entry): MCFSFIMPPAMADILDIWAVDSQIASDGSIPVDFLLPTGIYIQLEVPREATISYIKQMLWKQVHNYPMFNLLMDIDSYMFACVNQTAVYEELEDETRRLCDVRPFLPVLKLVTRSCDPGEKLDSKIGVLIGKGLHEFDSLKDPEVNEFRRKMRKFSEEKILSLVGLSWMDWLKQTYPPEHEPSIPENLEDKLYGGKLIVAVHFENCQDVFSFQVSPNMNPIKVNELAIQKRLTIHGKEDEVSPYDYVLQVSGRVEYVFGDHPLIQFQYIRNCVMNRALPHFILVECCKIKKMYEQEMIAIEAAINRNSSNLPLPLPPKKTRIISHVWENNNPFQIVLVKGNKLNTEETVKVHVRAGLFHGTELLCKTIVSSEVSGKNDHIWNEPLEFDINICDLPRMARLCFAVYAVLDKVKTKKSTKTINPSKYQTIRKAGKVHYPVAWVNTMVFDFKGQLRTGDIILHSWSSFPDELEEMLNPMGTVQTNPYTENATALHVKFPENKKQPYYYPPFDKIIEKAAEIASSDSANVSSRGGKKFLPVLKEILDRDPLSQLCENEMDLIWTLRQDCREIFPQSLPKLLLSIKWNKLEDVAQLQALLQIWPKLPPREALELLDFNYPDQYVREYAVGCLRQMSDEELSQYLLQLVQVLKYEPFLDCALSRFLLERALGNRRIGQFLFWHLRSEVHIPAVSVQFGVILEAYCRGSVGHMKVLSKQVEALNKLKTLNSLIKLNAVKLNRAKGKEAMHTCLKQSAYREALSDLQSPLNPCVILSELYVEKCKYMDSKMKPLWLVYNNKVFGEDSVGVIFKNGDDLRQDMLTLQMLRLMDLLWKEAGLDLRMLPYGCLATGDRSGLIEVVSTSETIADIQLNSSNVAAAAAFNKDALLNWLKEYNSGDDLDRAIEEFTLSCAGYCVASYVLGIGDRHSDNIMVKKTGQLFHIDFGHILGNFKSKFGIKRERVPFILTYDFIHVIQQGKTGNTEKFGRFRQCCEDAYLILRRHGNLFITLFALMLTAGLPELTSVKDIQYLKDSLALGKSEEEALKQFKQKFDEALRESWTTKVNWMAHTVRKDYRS
T2 sequence (P27986 whole entry partner): as the sequence (P27986 whole entry partner) above
T4 sequence (P48736 whole entry): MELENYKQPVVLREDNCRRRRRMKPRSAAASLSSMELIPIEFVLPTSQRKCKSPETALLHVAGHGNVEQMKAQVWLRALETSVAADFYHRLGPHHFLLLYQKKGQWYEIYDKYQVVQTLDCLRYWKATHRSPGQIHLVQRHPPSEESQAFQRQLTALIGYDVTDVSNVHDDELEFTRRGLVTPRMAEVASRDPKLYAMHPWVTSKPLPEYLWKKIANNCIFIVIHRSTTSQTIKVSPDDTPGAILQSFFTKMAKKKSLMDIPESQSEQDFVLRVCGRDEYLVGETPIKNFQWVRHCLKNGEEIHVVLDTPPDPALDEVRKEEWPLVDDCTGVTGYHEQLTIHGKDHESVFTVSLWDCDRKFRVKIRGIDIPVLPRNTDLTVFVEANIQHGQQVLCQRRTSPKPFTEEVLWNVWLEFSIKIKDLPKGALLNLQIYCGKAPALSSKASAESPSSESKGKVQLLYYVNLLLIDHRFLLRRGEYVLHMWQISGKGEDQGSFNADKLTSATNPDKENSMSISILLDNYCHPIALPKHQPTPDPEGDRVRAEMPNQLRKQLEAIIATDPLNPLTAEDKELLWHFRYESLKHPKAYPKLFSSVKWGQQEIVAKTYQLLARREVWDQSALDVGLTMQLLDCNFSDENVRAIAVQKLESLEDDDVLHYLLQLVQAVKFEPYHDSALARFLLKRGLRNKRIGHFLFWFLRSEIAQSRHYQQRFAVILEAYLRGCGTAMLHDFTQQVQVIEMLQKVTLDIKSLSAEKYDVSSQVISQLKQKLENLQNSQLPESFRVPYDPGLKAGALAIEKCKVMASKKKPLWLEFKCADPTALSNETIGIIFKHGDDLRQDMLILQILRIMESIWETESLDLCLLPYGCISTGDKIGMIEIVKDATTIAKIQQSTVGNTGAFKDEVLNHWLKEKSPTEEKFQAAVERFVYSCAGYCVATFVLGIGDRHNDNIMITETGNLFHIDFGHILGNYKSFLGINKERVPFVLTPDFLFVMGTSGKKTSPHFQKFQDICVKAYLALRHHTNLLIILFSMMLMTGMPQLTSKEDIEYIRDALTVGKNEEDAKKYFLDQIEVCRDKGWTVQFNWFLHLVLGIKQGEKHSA
T1 sequence (P42336 whole entry): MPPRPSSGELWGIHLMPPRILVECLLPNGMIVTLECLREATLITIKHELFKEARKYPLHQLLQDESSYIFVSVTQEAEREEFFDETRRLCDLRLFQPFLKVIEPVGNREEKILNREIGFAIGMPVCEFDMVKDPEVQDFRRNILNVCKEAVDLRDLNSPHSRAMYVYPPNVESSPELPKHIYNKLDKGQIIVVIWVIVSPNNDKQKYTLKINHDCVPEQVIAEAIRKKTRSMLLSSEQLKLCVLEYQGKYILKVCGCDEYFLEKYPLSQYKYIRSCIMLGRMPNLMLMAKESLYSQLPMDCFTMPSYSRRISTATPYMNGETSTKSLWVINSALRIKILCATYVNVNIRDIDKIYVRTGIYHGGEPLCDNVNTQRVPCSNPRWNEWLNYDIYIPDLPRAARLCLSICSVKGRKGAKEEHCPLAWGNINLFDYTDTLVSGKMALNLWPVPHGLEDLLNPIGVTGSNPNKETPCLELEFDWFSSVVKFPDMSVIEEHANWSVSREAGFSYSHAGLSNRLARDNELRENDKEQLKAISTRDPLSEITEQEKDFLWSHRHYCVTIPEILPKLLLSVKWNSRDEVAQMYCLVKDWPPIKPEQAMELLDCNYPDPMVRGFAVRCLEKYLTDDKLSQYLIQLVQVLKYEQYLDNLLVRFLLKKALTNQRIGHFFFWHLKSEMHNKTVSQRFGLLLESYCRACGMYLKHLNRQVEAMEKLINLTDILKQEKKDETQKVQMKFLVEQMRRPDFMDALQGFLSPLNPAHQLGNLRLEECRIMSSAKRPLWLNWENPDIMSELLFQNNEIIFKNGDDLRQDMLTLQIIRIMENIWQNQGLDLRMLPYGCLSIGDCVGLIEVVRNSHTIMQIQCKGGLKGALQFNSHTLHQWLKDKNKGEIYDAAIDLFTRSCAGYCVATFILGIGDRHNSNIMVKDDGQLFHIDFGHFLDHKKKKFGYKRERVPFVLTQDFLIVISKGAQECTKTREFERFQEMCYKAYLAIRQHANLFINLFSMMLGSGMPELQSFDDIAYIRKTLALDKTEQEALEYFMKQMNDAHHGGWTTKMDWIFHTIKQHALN
T1 sequence (P27986 whole entry partner): as the sequence (P27986 whole entry partner) above

For the molecule `CC(=O)Nc1cc(-c2nc(C(c3ccc(Cl)cc3)N3CCNCC3)c(-c3nnc[nH]3)s2)ccn1` (centres unmarked) [Compound 229], the results for the inhibition at 1.1 µM at Human PI3K alpha (setting [1]) and on Human PI3K beta (setting [2]) were 62% and 105%, respectively. The figures for the inhibition at 1 µM on Human PI3K delta (setting [3]) and at Human PI3K gamma (setting [4]) were 106% and 16%, respectively.
The corresponding values for `CC(=O)Nc1cc(-c2cc(C(NCC(F)(F)F)c3ccc(Cl)cc3)c(-c3nnc[nH]3)s2)ccn1` (centres unmarked) [Compound 135] are 78%, 87%, 99% and 8%.
For `CC(=O)Nc1cc(-c2cc(/C(=C/CCN(C)C)c3ccc(Cl)cc3)c(-c3nnc[nH]3)s2)ccn1` [Compound 225], in that order: 51%, 52%, 84% and 51%.
The corresponding values for `COc1ccc(C(O)c2cc(-c3ccncc3)sc2-c2nnc[nH]2)cc1Cl` (centres unmarked) [Compound 191] are 26%, 97%, 90% and 30%.
Take `CC(=O)Nc1cc(-c2cc(C(c3ccc(Cl)cc3)N3CC[C@H](CO)C3)c(-c3nnc[nH]3)s2)ccn1` (some centres unmarked) [Compound 269]: the inhibition at 1.1 µM on Human PI3K alpha (setting [1]) stood at 72%; on Human PI3K beta (setting [2]) it was 100%. Moreover, the inhibition at 1 µM was 101% on Human PI3K delta (setting [3]) and 15% at Human PI3K gamma (setting [4]).
For `OC(c1cccc(C(F)(F)F)c1)c1cc(-c2ccncc2)sc1-c1nnc[nH]1` (centres unmarked) [Compound 159], in that order: 18%, 61%, 31% and 5%.
Take `CC(=O)Nc1cc(-c2cc(C(NCCN(C)C)c3ccc(Cl)cc3)c(-c3nnc[nH]3)s2)ccn1` (centres unmarked) [Compound 184]: the inhibition at 1.1 µM turned out to be 76% on Human PI3K alpha (setting [1]) and 112% on Human PI3K beta (setting [2]). The inhibition at 1 µM at Human PI3K delta (setting [3]) was 112%; at Human PI3K gamma (setting [4]), 16%.
Take `COc1cc(C(O)c2cc(-c3ccnc(Cl)c3)sc2-c2nnc[nH]2)c(F)cc1Cl` (centres unmarked) [Compound 278]: at Human PI3K alpha (setting [5]), the “p110 alpha Percent Inhibition” value is given as 23%. At Human PI3K beta (setting [2]), the inhibition at 1.1 µM was 98%. Further, on Human PI3K delta (setting [6]), the “p110 delta Percent Inhibition” value was determined as 83%. The “p110 gamma Percent Inhibition” value at Human PI3K gamma (setting [6]) is on record as 35%.
As for `O=C(O)c1sc(N2CCOCC2)c(C#Cc2ccccc2)c1Cc1ccc(Cl)c(Cl)c1` [Compound 296, 3-(3,4-dichlorobenzyl)-5-(morpholin-4-yl)-4-(phenylethynyl)thiophene-2-carboxylic acid], the results for the inhibition at 1.1 µM at Human PI3K alpha (setting [1]) and at Human PI3K beta (setting [2]) were 37% and 79%, respectively. The inhibition at 1 µM on Human PI3K delta (setting [3]) was determined as 107%; at Human PI3K gamma (setting [4]) it was 14%.
Turning to `Cc1ccc(C(O)c2cc(-c3ccncc3)sc2-c2nnc[nH]2)s1` (centres unmarked) [Compound 271], the inhibition at 1.1 µM on Human PI3K alpha (setting [1]) was 35%; on Human PI3K beta (setting [2]), 82%. Also, the inhibition at 1 µM at Human PI3K delta (setting [3]) is 63%; on Human PI3K gamma (setting [4]), 8%.
Take `COc1cc(C(O)c2cc(-c3ccnnc3)sc2-c2nnc[nH]2)c(F)cc1Cl` (centres unmarked) [Compound 282]: the results for the inhibition at 1.1 µM on Human PI3K alpha (setting [1]) and at Human PI3K beta (setting [2]) were 14% and 99%, respectively. Also, the “p110 delta Percent Inhibition” value on Human PI3K delta (setting [6]) amounted to 64%. In addition, the “p110 gamma Percent Inhibition” value at Human PI3K gamma (setting [6]) is on record as 21%.
`COc1ccc(C(O)c2cc(-c3ccncc3)sc2-c2nnc[nH]2)c(C)c1` (centres unmarked) [Compound 158]: the inhibition at 1.1 µM at Human PI3K alpha (setting [1]) came to 18%; on Human PI3K beta (setting [2]), 94%. Moreover, the inhibition at 1 µM on Human PI3K delta (setting [3]) came out at 69%; at Human PI3K gamma (setting [4]), 20%.
For `CC(c1ccc2ccccc2c1)c1nc(N2CCOCC2)sc1C(=O)O` (centres unmarked) [Compound 346], in that order: 21%, 98%, 98% and 23%.
On to `CC(=O)Nc1cc(-c2cc(C(c3ccc(Cl)cc3)N3CC(N)C3)c(-c3nnc[nH]3)s2)ccn1` (centres unmarked) [Compound 200], for which the inhibition at 1.1 µM was determined as 101% at Human PI3K alpha (setting [1]) and 118% at Human PI3K beta (setting [2]). In addition, the results for the inhibition at 1 µM on Human PI3K delta (setting [3]) and on Human PI3K gamma (setting [4]) were 111% and 60%, respectively.
For `CC(C)C(c1ccc(Cl)cc1)c1nc(N2CCOCC2)sc1C(=O)O` (centres unmarked) [Compound 304], in that order: 6%, 25%, 32% and 7%.
For `COC(c1ccc2ccccc2c1)c1c(C(=O)O)sc(N2CCOCC2)c1C#N` (centres unmarked) [Compound 368, 4-cyano-3-[methoxy(2-naphthyl)methyl]-5-(morpholin-4-yl)thiophene-2-carboxylic acid], the inhibition at 1.1 µM at Human PI3K alpha (setting [1]) was 89%; on Human PI3K beta (setting [2]), 112%. In addition, the “p110 delta Percent Inhibition” value at Human PI3K delta (setting [6]) came to 113%. The inhibition at 1 µM at Human PI3K gamma (setting [4]) stood at 87%.
For `OC(c1cc(-c2ccncc2)sc1-c1nnc[nH]1)c1cccc(F)c1F` (centres unmarked) [Compound 235], the inhibition at 1.1 µM at Human PI3K alpha (setting [1]) turned out to be 65%; on Human PI3K beta (setting [2]), 101%. Moreover, the results for the inhibition at 1 µM on Human PI3K delta (setting [3]) and at Human PI3K gamma (setting [4]) were 66% and 17%, respectively.
The corresponding values for `OC(c1cc(-c2ccncc2)sc1-c1nnc[nH]1)c1cccc2nccnc12` (centres unmarked) [Compound 169] are 65%, 89%, 65% and 7%.
The corresponding values for `CC(=O)Nc1cc(-c2cc([C@@H](c3ccc(Cl)cc3)N3CCC3)c(-c3nnc[nH]3)s2)ccn1` (single isomer, unassigned) [Compound 176] are 76%, 109%, 109% and 35%.
Turning to `CS(=O)(=O)NC(c1ccc(Cl)cc1)c1c(C(=O)O)sc(N2CCOCC2)c1C#N` (centres unmarked) [Compound 317], the inhibition at 1.1 µM was determined as 20% at Human PI3K alpha (setting [1]) and 77% at Human PI3K beta (setting [2]). The inhibition at 1 µM turned out to be 70% at Human PI3K delta (setting [3]) and 29% at Human PI3K gamma (setting [4]).
The corresponding values for `COc1ccc(C(O)c2cc(-c3ccncc3)sc2-c2nnc[nH]2)cc1F` (centres unmarked) [Compound 130] are 21%, 73%, 62% and 22%.
For `CC(c1ccc(Cl)c(Cl)c1)c1c(C(=O)O)sc(N2CCOCC2)c1C#N` (centres unmarked) [Compound 321], at Human PI3K alpha (setting [1]), the inhibition at 1.1 µM was found to be 67%. Further, on Human PI3K beta (setting [5]), the “p110 beta Percent Inhibition” value came out at 73%. In addition, at Human PI3K delta (setting [6]), the “p110 delta Percent Inhibition” value worked out at 86%. The inhibition at 1 µM on Human PI3K gamma (setting [4]) was determined as 59%.
For the molecule `CC(=O)Nc1cc(-c2cc(C(c3ccc(Cl)cc3)N3CCCC3)c(-c3nnc[nH]3)s2)ccn1` (centres unmarked) [Compound 230], the inhibition at 1.1 µM on Human PI3K alpha (setting [1]) turned out to be 57%; at Human PI3K beta (setting [2]), 93%. In addition, the values for the inhibition at 1 µM at Human PI3K delta (setting [3]) and on Human PI3K gamma (setting [4]) were 102% and 29%, respectively.
The corresponding values for `COc1ccc(C(O)c2cc(-c3ccncc3)sc2-c2nnc[nH]2)c(F)c1` (centres unmarked) [Compound 264] are 32%, 99%, 100% and 28%.
For `O=C(NO)c1sc(N2CCOCC2)nc1Cc1ccc(Cl)c(Cl)c1` [Compound 298, 4-(3,4-dichlorobenzyl)-N-hydroxy-2-(morpholin-4-yl)-1,3-thiazole-5-carboxamide], in that order: 11%, 95%, 103% and 38%.
For `CC(C)(C)[S+]([O-])NC(c1ccc2ccccc2c1)c1c(C(=O)O)sc(N2CCOCC2)c1C#N` (centres unmarked) [Compound 323], in that order: 66%, 61%, 97% and 46%.
Take `CC(=O)Nc1cc(-c2cc(C(c3ccc(Cl)cc3)n3cccn3)c(-c3nnc[nH]3)s2)ccn1` (centres unmarked) [Compound 206]: the figures for the inhibition at 1.1 µM at Human PI3K alpha (setting [1]) and at Human PI3K beta (setting [2]) were 90% and 96%, respectively. Moreover, the inhibition at 1 µM was found to be 106% at Human PI3K delta (setting [3]) and 11% at Human PI3K gamma (setting [4]).
Take `COC(=O)NC(c1ccc2ccccc2c1)c1c(C(=O)O)sc(N2CCOCC2)c1C#N` (centres unmarked) [Compound 354]: the inhibition at 1.1 µM is 89% at Human PI3K alpha (setting [1]) and 111% at Human PI3K beta (setting [2]). For the same molecule, the inhibition at 1 µM is 99% on Human PI3K delta (setting [3]) and 40% on Human PI3K gamma (setting [4]).
Regarding `CC(=O)Nc1cc(-c2cc(C(c3ccc(Cl)cc3)N3CCC[C@@H]3CO)c(-c3nnc[nH]3)s2)ccn1` (some centres unmarked) [Compound 268], the figures for the inhibition at 1.1 µM on Human PI3K alpha (setting [1]) and on Human PI3K beta (setting [2]) were 82% and 95%, respectively. Moreover, the inhibition at 1 µM amounted to 102% on Human PI3K delta (setting [3]) and 16% on Human PI3K gamma (setting [4]).
`O=C(O)c1sc(N2CCOCC2)nc1Cc1ccc(Cl)cc1` [Compound 91, 4-(4-chlorobenzyl)-2-morpholinothiazole-5-carboxylic acid]: the inhibition at 1.1 µM at Human PI3K alpha (at a 1.1 μM concentration, read-out: PI3Kα Percent Inhibition) amounted to 27%; at Human PI3K beta (at a 1.1 μM concentration, read-out: PI3β Percent Inhibition) it was 105%. Also, the half-maximal inhibitory concentration (IC50) at Human PI3K alpha (read-out: PI3Kalpha IC50) is more than 1000 nM; on Human PI3K beta (read-out: PI3 Kbeta IC50), less than 100 nM. Besides, the inhibition at 1 µM at Human PI3K delta (at a 1.0 μM concentration, read-out: PI3Kδ Percent Inhibition) was found to be 84.8%; at Human PI3K gamma (at a 1.0 μM concentration, read-out: PI3Kγ Percent Inhibition), 15.4%.

The IC50 is the point on the concentration scale where inhibition reaches its midpoint.

For the origin of these results see US8796268B2, “Heteroaryls and uses thereof” (Millennium Pharmaceuticals, Inc., priority 2010, dated 2014).
